Source: ChEMBL document CHEMBL3576760, “Modification of amphipathic non-opioid dynorphin A analogues for rat brain bradykinin receptors” (Bioorg Med Chem Lett, 2015)
Calls of active or inactive are those of the source. No cut-off for these calls is given here. Non-standard residues stand in square brackets, D forms with d. Residues, ends and D or L forms follow the SMILES beside them. ξ: configuration not given here. Phe(4-NH2) = Nc1ccc(C[C@H](N)C(=O)O)cc1; dNle = CCCC[C@@H](N)C(=O)O; ξNle = CCCCC(N)C(=O)O

What was measured:
[1] = Displacement of [3H]DALKD from bradykinin receptor in rat brain membrane at pH 7.4 by competition assay; type: cell membranes
[2] = Retention time of the compound by HPLC analysis; type: physicochemical
[3] = (§1) Displacement of [3H]DALKD from bradykinin receptor in rat brain membrane at pH 6.8 by competition assay; type: cell membranes
Rattus norvegicus = species on record: Rattus norvegicus; assay: as §1; type: cell membranes

Structure (SMILES) | IC50 [1] [nM] | pIC50 [1] | Retention_time [2] [min] | pIC50 [3] | IC50 ([3]; read-out: IC50) [nM] | pIC50 (Rattus norvegicus) | IC50 [3]
CC[C@H](C)[C@H](NC(=O)[C@H](CCCNC(=N)N)NC(=O)[C@@H]1CCCN1C(=O)[C@H](CCCCN)NC(=O)[C@H](CC(C)C)NC(=O)[C@@H](N)CC(C)C)C(=O)N[C@@H](CCCNC(=N)N)C(=O)N[C@@H](CCCNC(=N)N)C(=O)N[C@@H](CC(C)C)C(=O)N[C@@H](Cc1ccccc1)C(=O)NCC(=O)NCC(=O)O (H-LLKPRIRRLFGG-OH) |  |  | 12.6 | 7.03 | 93 |  | 
CC(C)C[C@H](NC(=O)[C@H](CCCCN)NC(=O)[C@@H](N)Cc1ccccc1)C(=O)N[C@@H](CCCCN)C(=O)O (H-FKLK-OH) | 350 | 6.46 | 10.8 |  |  |  | 
CC[C@H](C)[C@H](NC(=O)[C@@H](N)CCCNC(=N)N)C(=O)N[C@@H](CCCNC(=N)N)C(=O)N1CCC[C@H]1C(=O)N[C@@H](CCCCN)C(=O)N[C@@H](CC(C)C)C(=O)N[C@@H](CCCCN)C(=O)O (H-RIRPKLK-OH) |  |  | 8.3 | 7.19 | 65 |  | 
CC[C@H](C)[C@H](NC(=O)[C@H](CCCNC(=N)N)NC(=O)[C@@H]1CCCN1C(=O)[C@H](CCCCN)NC(=O)[C@H](CC(C)C)NC(=O)[C@@H](N)CCCCN)C(=O)O (H-KLKPRI-OH) |  |  | 9.9 | 5.2 | 6300 |  | 
CC[C@H](C)[C@H](NC(=O)[C@H](CCCNC(=N)N)NC(=O)[C@@H]1CCCN1C(=O)[C@H](CCCCN)NC(=O)[C@H](CC(C)C)NC(=O)[C@@H](N)CCCCN)C(=O)N[C@@H](CCCNC(=N)N)C(=O)N[C@@H](CCCNC(=N)N)C(=O)N[C@@H](CC(C)C)C(=O)N[C@@H](Cc1ccccc1)C(=O)NCC(=O)NCC(=O)O (H-KLKPRIRRLFGG-OH) |  |  | 11.6 | 7.11 | 78 |  | 
CCCCC(N)C(=O)N[C@@H](CCCCN)C(=O)NC(CCCC)C(=O)N[C@@H](CCCCN)C(=O)O (some centres not stated) (H-[ξNle]K[ξNle]K-OH) | 110 | 6.94 | 9.9 |  |  |  | 
CC[C@H](C)[C@H](NC(=O)[C@H](CCCNC(=N)N)NC(=O)[C@@H]1CCCN1C(=O)[C@H](CCCCN)NC(=O)[C@H](CC(C)C)NC(=O)[C@@H](N)CCCCN)C(=O)N[C@@H](CCCNC(=N)N)C(=O)N[C@@H](CC(C)C)C(=O)N[C@@H](Cc1ccccc1)C(=O)NCC(=O)NCC(=O)O (H-KLKPRIRLFGG-OH) |  |  | 12.1 | 6.82 | 150 |  | 
CC(C)C[C@H](NC(=O)[C@H](Cc1ccccc1)NC(=O)CN)C(=O)N[C@@H](CCCNC(=N)N)C(=O)O (H-GFLR-OH) | 950 | 6.02 | 8.7 |  |  |  | 
CCCCC(N)C(=O)N[C@@H](CCCNC(=N)N)C(=O)N1CCC[C@H]1C(=O)N[C@@H](CCCNC(=N)N)C(=O)NC(CCCC)C(=O)N[C@@H](CCCCN)C(=O)O (some centres not stated) (H-[ξNle]RPR[ξNle]K-OH) |  |  | 8.2 | 7.08 | 83 |  | 
CCCCC(NC(=O)[C@H](CCCCN)NC(=O)[C@@H]1CCCN1)C(=O)N[C@@H](CCCCN)C(=O)O (some centres not stated) (H-PK[ξNle]K-OH) | 71 | 7.15 | 7.5 |  |  |  | 
CCCCC(NC(=O)[C@H](CCCNC(=N)N)NC(=O)C(CCCC)NC(=O)[C@@H](N)Cc1ccccc1)C(=O)N[C@@H](CCCNC(=N)N)C(=O)N1CCC[C@H]1C(=O)N[C@@H](CCCNC(=N)N)C(=O)O (some centres not stated) (H-F[ξNle]R[ξNle]RPR-OH) |  |  |  | 7.06 | 87 |  | 
CC(C)C[C@H](NC(=O)[C@H](CCCCN)NC(=O)[C@@H]1CCCN1)C(=O)N[C@@H](CCCCN)C(=O)O (H-PKLK-OH) |  |  |  | 6.68 | 210 |  | 
CC(C)C[C@H](NC(=O)[C@H](CCCNC(=N)N)NC(=O)[C@H](CC(C)C)NC(=O)[C@@H](N)Cc1ccccc1)C(=O)N[C@@H](CCCNC(=N)N)C(=O)N1CCC[C@H]1C(=O)N[C@@H](CCCNC(=N)N)C(=O)O (H-FLRLRPR-OH) |  |  | 10.8 | 7 | 100 |  | 
CC(C)C[C@H](NC(=O)[C@H](CCCCN)NC(=O)[C@@H]1CCCN1C(=O)[C@@H](N)CCCNC(=N)N)C(=O)N[C@@H](CCCCN)C(=O)O |  |  | 6 | 7.24 | 58 |  | 
CC[C@H](C)[C@H](N)C(=O)N[C@@H](CCCNC(=N)N)C(=O)N1CCC[C@H]1C(=O)N[C@@H](CCCCN)C(=O)N[C@@H](CC(C)C)C(=O)N[C@@H](CCCCN)C(=O)O (H-IRPKLK-OH) |  |  | 6.8 | 7.31 | 49 |  | 
CC[C@H](C)[C@H](NC(=O)[C@H](CCCNC(=N)N)NC(=O)[C@@H]1CCCN1C(=O)[C@@H](N)CCCCN)C(=O)N[C@@H](CCCNC(=N)N)C(=O)N[C@@H](CC(C)C)C(=O)N[C@@H](Cc1ccccc1)C(=O)O (H-KPRIRLF-OH) |  |  | 14.5 | 7.3 | 50 |  | 

Next, values leading:

IC50 [1] [nM] | pIC50 [1] | Retention_time [2] [min] | pIC50 [3] | IC50 ([3]; read-out: IC50) [nM] | pIC50 (Rattus norvegicus) | IC50 [3] | Structure (SMILES)
4800 | 5.32 | 9.2 |  |  |  |  | CC[C@H](C)[C@H](NC(=O)[C@H](CCCNC(=N)N)NC(=O)[C@H](CCCNC(=N)N)NC(=O)[C@H](CC(C)C)NC(=O)[C@@H](N)Cc1ccccc1)C(=O)O (H-FLRRI-OH)
 |  |  | 7.39 | 41 |  |  | CC[C@H](C)[C@H](NC(=O)[C@H](CCCNC(=N)N)NC(=O)[C@H](CC(C)C)NC(=O)[C@H](Cc1ccccc1)NC(=O)CNC(=O)CN)C(=O)N[C@@H](CCCNC(=N)N)C(=O)N1CCC[C@H]1C(=O)N[C@@H](CCCCN)C(=O)N[C@@H](CC(C)C)C(=O)N[C@@H](CCCCN)C(=O)O (H-GGFLRIRPKLK-OH)
2300 | 5.63 | 10.1 |  |  |  |  | CC[C@H](C)[C@H](NC(=O)[C@H](CCCNC(=N)N)NC(=O)[C@H](CCCNC(=N)N)NC(=O)[C@H](CC(C)C)NC(=O)[C@H](Cc1ccccc1)NC(=O)CN)C(=O)O (H-GFLRRI-OH)
 |  | 9.9 | 6.96 | 110 |  |  | CC[C@H](C)[C@H](NC(=O)[C@H](CCCNC(=N)N)NC(=O)[C@@H](NC(=O)[C@@H](N)Cc1ccccc1)[C@@H](C)CC)C(=O)N[C@@H](CCCNC(=N)N)C(=O)N1CCC[C@H]1C(=O)N[C@@H](CCCNC(=N)N)C(=O)O (H-FIRIRPR-OH)
 |  | 7.9 | 6.34 | 460 |  |  | CCCCC(N)C(=O)N[C@@H](CCCCN)C(=O)N[C@H](C(=O)N[C@@H](CCCCN)C(=O)N1CCC[C@H]1C(=O)N[C@@H](CCCCN)C(=O)O)[C@@H](C)CC (some centres not stated) (H-[ξNle]KIKPK-OH)
 |  | 10.2 | 7.08 | 83 |  |  | CC[C@H](C)[C@H](NC(=O)[C@H](CCCNC(=N)N)NC(=O)[C@@H](N)Cc1ccccc1)C(=O)N[C@@H](CCCNC(=N)N)C(=O)N1CCC[C@H]1C(=O)N[C@@H](CCCCN)C(=O)N[C@@H](CC(C)C)C(=O)N[C@@H](CCCCN)C(=O)O (H-FRIRPKLK-OH)
 |  |  | 7.11 | 78 |  |  | CCCCC(N)C(=O)N[C@@H](CCCCN)C(=O)N1CCC[C@H]1C(=O)N[C@@H](CCCCN)C(=O)NC(CCCC)C(=O)N[C@@H](CCCCN)C(=O)O (some centres not stated) (H-[ξNle]KPK[ξNle]K-OH)
450 | 6.35 | 7.2 |  |  |  |  | CC(C)C[C@H](NC(=O)[C@H](CCCCN)NC(=O)[C@@H](N)Cc1ccc(N)cc1)C(=O)N[C@@H](CCCCN)C(=O)O (H-[Phe(4-NH2)]KLK-OH)
 |  | 11.4 | 5.28 | 5200 |  |  | CC[C@H](C)[C@H](NC(=O)[C@H](CCCNC(=N)N)NC(=O)[C@H](CCCNC(=N)N)NC(=O)[C@H](CC(C)C)NC(=O)[C@@H](N)Cc1ccccc1)C(=O)N[C@@H](CCCNC(=N)N)C(=O)N1CCC[C@H]1C(=O)N[C@@H](CCCCN)C(=O)N[C@@H](CC(C)C)C(=O)O (H-FLRRIRPKL-OH)
 |  | 11.1 |  |  | inactive | Not Active | CCCC[C@@H](NC(=O)[C@H](N)Cc1ccccc1)C(=O)N[C@H](CCCNC(=N)N)C(=O)N[C@H](CCCC)C(=O)N[C@H](CCCNC(=N)N)C(=O)N1CCC[C@@H]1C(=O)N[C@H](CCCCN)C(=O)O (H-[dF][dNle][dR][dNle][dR][dP][dK]-OH)
 |  | 9.9 | 6.03 | 930 |  |  | CC[C@H](C)[C@H](NC(=O)[C@H](CCCNC(=N)N)NC(=O)[C@@H]1CCCN1C(=O)[C@@H](N)CCCCN)C(=O)N[C@@H](CCCNC(=N)N)C(=O)N[C@@H](CC(C)C)C(=O)O (H-KPRIRL-OH)
